According to ChEMBL document CHEMBL3217608, “Alkaloids from Rutaceae: activities of canthin-6-one alkaloids and synthetic analogues on glioblastoma stems cells” (Medchemcomm, 2012):
Active and inactive are the calls of the source. The calls are words filed in the database; no cut-off is given here.

Experiments:
[1] = molecular target: RAC-alpha serine/threonine-protein kinase (Homo sapiens) (UniProt P31749); assay: Inhibition of AKT phosphorylation in human TG1 cells at 300 uM after 30 mins by Western blot analysis; format: cell-based
Sequence of RAC-alpha serine/threonine-protein kinase (Homo sapiens) (P31749 whole entry): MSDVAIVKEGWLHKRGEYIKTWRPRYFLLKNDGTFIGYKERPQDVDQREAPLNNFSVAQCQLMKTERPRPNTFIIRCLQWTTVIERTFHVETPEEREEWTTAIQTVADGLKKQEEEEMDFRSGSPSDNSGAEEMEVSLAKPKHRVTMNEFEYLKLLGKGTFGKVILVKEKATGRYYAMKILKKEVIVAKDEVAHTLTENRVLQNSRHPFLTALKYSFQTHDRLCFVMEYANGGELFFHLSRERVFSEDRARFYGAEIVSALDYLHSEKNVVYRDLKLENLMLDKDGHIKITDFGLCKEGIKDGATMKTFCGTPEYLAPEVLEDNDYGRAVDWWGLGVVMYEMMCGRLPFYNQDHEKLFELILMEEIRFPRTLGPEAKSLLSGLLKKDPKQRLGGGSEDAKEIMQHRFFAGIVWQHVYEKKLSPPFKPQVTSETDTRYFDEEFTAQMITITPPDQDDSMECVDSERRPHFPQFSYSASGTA

[2] = (§1) Antiproliferative against human TG1 cells at 300 uM after 24 hrs by WST-1 assay; format: functional
[3] = (§2) Antiproliferative against human TG10 cells at 300 uM after 24 hrs by WST-1 assay; format: functional
[4] = molecular target: RAC-alpha serine/threonine-protein kinase (Homo sapiens) (UniProt P31749); assay: Inhibition of AKT phosphorylation in human TG10 cells at 300 uM after 30 mins by Western blot analysis; format: cell-based
[5] = Antiproliferative against human NSC-24 cells at 300 uM after 24 hrs by WST-1 assay; format: cell-based; settings: nsc-24, 24 h
[6] = molecular target: RAC-alpha serine/threonine-protein kinase (Homo sapiens) (UniProt P31749); assay: Inhibition of AKT phosphorylation in human NSC-24 cells at 300 uM after 30 mins by Western blot analysis; format: cell-based
[7] = (§3) Antiproliferative against human TG1 cells at 30 to 300 uM after 24 hrs by WST-1 assay; format: functional
TG1 [8] = assay: as §3; format: functional
[9] = Antiproliferative against human TG10 cells at 30 to 300 uM after 24 hrs by WST-1 assay; format: functional
[10] = Antiproliferative against human NSC-24 cells at 30 to 300 uM after 24 hrs by WST-1 assay; format: cell-based; settings: nsc-24, 24 h
TG1 [11] = assay: as §1; format: functional
TG10 = assay: as §2; format: functional
[12] = Antiproliferative against human TG10 cells after 24 hrs by WST-1 assay; format: functional
[13] = Antiproliferative against human TG1 cells after 24 hrs by WST-1 assay; format: functional

| Structure (SMILES) | inhibition [1] | inhibition [4] | Activity [7] | Activity (TG1 [8]) | further results |
| --- | --- | --- | --- | --- | --- |
| O=c1ccc2nccc3c4cc(OCc5ccccc5)ccc4n1c23 | Active | Active | 40% | – | Activity [2]: 40%; Activity [3]: 85%; Activity [5]: Non-toxic; inhibition [6]: inactive |
| COc1ccc2c(c1)c1ccnc3ccc(=O)n2c31 | – | – | – | inactive | – |
| Nc1cc(=O)n2c3ccccc3c3ccnc1c32 | – | – | – | inactive | – |
| O=C1CCc2nccc3c4ccccc4n1c23 | – | – | – | inactive | – |
| O=c1c2ccccc2c2nccc3c4ccccc4n1c32 | – | – | – | inactive | – |
| O=c1ccc2c3c(cc[n+]2[O-])c2ccccc2n13 | – | – | – | inactive | – |
| COc1cc2nccc3c4ccccc4n(c1=O)c23 [5-METHOXYCANTHINONE] | Active | Active | 40% | – | Activity [9]: 35%; Activity [10]: 60%; inhibition [6]: Active |
| O=c1ccc2nccc3c4ccccc4n1c23 [CANTHIN-6-ONE] | Active | Active | 40% | – | Activity [9]: 35%; Activity (TG1 [11]): Active; Activity (TG10): Active; Activity [10]: 60% |
| Cn1nnc2c(C(N)=O)ncn2c1=O [TEMOZOLOMIDE] | – | – | – | – | Activity [12]: >80%; Activity [13]: >80% |
